Each structure is given as a SMILES string. ≈ marks a conversion by molar mass, not a printed value. Where only a bound is given, the exact number is not on record here.

For the data set the following is noted: buffer; pH 7.4; 200.0 µM.
On to `CN1CC(=O)Nc2ccc([N+](=O)[O-])cc2C1=O`, for which the solubility (kinetic) – broadly, solubility judged after dilution from a stock solution rather than from solid – was above 35.3 µg/mL.
The same measure for `N#Cc1c(NCCO)ccc([N+](=O)[O-])c1NCCO`: above 39.9 µg/mL; for `CC(OC(=O)CC1CCCCC1)C(=O)Nc1cccc(C#N)c1` (centres undefined): 37.1 µg/mL (≈ 118 µM).
In turn, `Cc1cccc(NC(=O)c2ccco2)c1C` registered a kinetic solubility of 31.8 µg/mL (≈ 148 µM).
The same measure for `CN1CCN2c3ccccc3Cc3ccccc3C2C1.Cl` (centres undefined): above 45.1 µg/mL; for `N#Cc1c(-c2ccccc2)ccnc1N1CCOCC1`: 17.6 µg/mL (≈ 66.3 µM); for `C/C(=N\Nc1nc(C)cc(C)n1)c1ccc(C)o1`: above 36.6 µg/mL.
For `COc1ccc(C(O)Cn2ccsc2=NC(C)=O)cc1` (centres undefined), the kinetic solubility came to 41.3 µg/mL (≈ 141 µM).
For the compound `CC(=O)Nc1ccc(S(=O)(=O)Nc2ccc3nc(C)sc3c2)cc1`, the kinetic solubility is 14.6 µg/mL (≈ 40.4 µM).
On to `Cc1nc2ccccc2c2oc(C(=O)N3CCCC(C)C3)cc12` (centres undefined), for which the solubility (kinetic) was 44.6 µg/mL (≈ 145 µM).
On to `Cc1cccc(Cl)c1OCCCn1ccnc1.O=C(O)C(=O)O`, for which the solubility (kinetic) is 45.4 µg/mL.
`COc1ccc(Cn2cc([N+](=O)[O-])nc2C)cc1[N+](=O)[O-]` displayed a kinetic solubility above 43.8 µg/mL.
The same measure for `COc1ccccc1NCC(=O)NC(=O)NC1CCCCC1`: 5.9 µg/mL (≈ 19.3 µM).
`COc1ccc2nc(SCC(=O)C(C)(C)C)[nH]c2c1` gave a solubility (kinetic) of 30.9 µg/mL (≈ 111 µM).
Regarding `CCOC(=O)c1ccc2ncc(-c3ccccc3)nc2c1`, the solubility (kinetic) worked out at 0.3 µg/mL (≈ 1.08 µM). Compared with the last compound, the solubility kinetic is about 100-fold lower.
As for `COc1cccc(C(=O)NCC2(c3ccccc3)CCCC2)c1OC`, the figure is 15.3 µg/mL (≈ 45.1 µM).
The same measure for `CN(Cc1cc2ccccc2[nH]c1=O)C(=O)COc1ccccc1`: 13.8 µg/mL (≈ 42.8 µM); for `COc1ccccc1OCC(O)CN1CCN(C(=O)c2ccccc2)CC1.Cl` (centres undefined): above 61 µg/mL; for `CCc1nc(-c2ccccc2)c2ccccn12.O=C(O)C(=O)O`: 38.1 µg/mL.
As to `COc1ccc(CNc2ccc([N+](=O)[O-])cc2C)cc1`, the solubility (kinetic) is 2.1 µg/mL (≈ 7.71 µM).
As for `Cc1cccnc1NC(=O)c1sc2ccccc2c1Cl`, the figure is 3 µg/mL (≈ 9.91 µM); as for `Cc1cccc(NC(=O)Nc2ccc3c(c2)CCC3)c1`, below 0.3 µg/mL.
The same measure for `C/C(=N\NC(=O)c1ccncc1)c1cccs1`: above 36.8 µg/mL; for `CC1(C)CC(=O)C=C(NCC(O)c2ccccc2)C1` (centres undefined): 36.7 µg/mL (≈ 142 µM).
As for `COc1ccccc1NC(=O)CCSc1nc(C)cs1`, the figure is above 46.3 µg/mL.
In turn, `Cc1ccc(S(=O)(=O)/N=C(/Nc2cccc(O)c2)c2ccccc2)cc1` came in with a solubility (kinetic) above 55 µg/mL.
As for `Cn1cc(C(=O)CCl)c2ccccc21`, the figure is above 31.1 µg/mL.
In turn, `Cn1cc(S(=O)(=O)N2CCNCC2)cc1C(N)=O` had a solubility (kinetic) above 40.8 µg/mL.
As for `COc1ccc(CC(=O)Nc2ccccc2-c2ccccc2)cc1OC`, the figure is 43.9 µg/mL (≈ 126 µM).
As for `O=S(=O)(c1cccs1)N1CCC2(CC1)OCCO2`, the figure is above 43.4 µg/mL; as for `CCOc1ccccc1NC(=O)C1C2CCC(O2)C1C(=O)O` (centres undefined), above 45.8 µg/mL; as for `Cc1ccn2cc(CCNC(=O)C3CC=CCC3C(=O)O)nc2c1` (centres undefined), 45.7 µg/mL (≈ 140 µM).
As for `O=C(Oc1ccc([N+](=O)[O-])cc1)C1CC(=O)N(c2ccc3c(c2)OCCO3)C1` (centres undefined), the figure is above 57.7 µg/mL; as for `O=C(NCCc1ccccc1F)c1ccc2c(c1)OCCO2`, above 45.2 µg/mL.
Compound `N#Cc1ccc(CN2C=NS(=O)(=O)c3ccccc32)cc1` had a kinetic solubility of 43.7 µg/mL (≈ 147 µM).
As for `Cc1ccc(NC(=O)CN2C(=O)S/C(=C\c3ccccn3)C2=O)cc1`, the figure is 0.9 µg/mL (≈ 2.55 µM); as for `O=C(O)C1CC=C(Cl)CC1C(=O)NC1CCCCC1` (centres undefined), above 42.9 µg/mL; as for `CC(C)(C)C(=O)CSc1ncnc2sc3c(c12)CCC3`, 0.7 µg/mL (≈ 2.28 µM).
The same measure for `CCc1ccccc1NC(=O)C1CCCC1`: 29.7 µg/mL (≈ 137 µM); for `CCOc1ccccc1C(=O)Nc1ccc(C(=O)c2ccccc2)cc1`: below 0.7 µg/mL; for `O=C1C2CCCN2C(=S)N1c1ccc(Cl)cc1` (centres undefined): above 40 µg/mL.
`O=C(CCCCl)N1CCc2[nH]c3ccccc3c2C1`: the kinetic solubility was above 41.5 µg/mL.
`Cc1nc(N)nc(Cl)c1Cc1ccc(Cl)cc1` yielded a kinetic solubility of 3.6 µg/mL (≈ 13.4 µM).
The same measure for `COc1cc(C(=O)Nc2ccc(C)cn2)c([N+](=O)[O-])cc1OC`: above 47.6 µg/mL; for `Cc1ccc(O)c(CNc2cccc3cccnc23)c1`: 2.9 µg/mL (≈ 11 µM).
On to `Cc1cccc(C)c1NC1=NCCCCC1`, for which the solubility (kinetic) is above 32.4 µg/mL.
As for `CCOC(=O)C1CCCCN1Cc1cccc(Oc2ccccc2)c1` (centres undefined), the figure is below 0.7 µg/mL.
For the compound `COc1ccccc1N1CCN(C(=O)c2ccc(Br)o2)CC1`, the kinetic solubility was above 54.8 µg/mL.
With `C=CCNC(=S)N1CCC(C(N)=O)CC1`, the kinetic solubility is above 34.1 µg/mL.
Consider `Cc1cc(/C=C2\SC(=S)N(C)C2=O)c(C)n1-c1cccc(O)c1`, for which the kinetic solubility is 0.4 µg/mL (≈ 1.16 µM).
The same measure for `COc1ccc(NC(=O)CN(C)CC(=O)N(CC(C)C)c2c(N)n(CC(C)C)c(=O)[nH]c2=O)cc1`: above 73.3 µg/mL; for `O=C(CC1CCCCC1)NCc1nc(-c2ccccc2)no1`: 5.8 µg/mL (≈ 19.4 µM).
As for `S=C(NCCCn1ccnc1)Nc1cccc(Cl)c1`, the figure is above 44.2 µg/mL; as for `CCC(=O)c1cn(CCOc2ccccc2OC)c2ccccc12`, 2.2 µg/mL (≈ 6.8 µM); as for `CCCc1ccc2oc(C(=O)N(C)Cc3nccs3)c(C)c2c1`, 14 µg/mL (≈ 42.6 µM).
As for `Cc1cc(OCC(=O)N(C)C2CCCCC2)cc(C)c1Cl`, the figure is 15.4 µg/mL (≈ 49.7 µM); as for `N#C/C(=C/c1cccc([N+](=O)[O-])c1)C(=O)Nc1ccccc1O`, 10.7 µg/mL (≈ 34.6 µM).
Turning to `O=C(COC(=O)c1cc2ccccc2cc1O)NC1CCCCC1`, the solubility (kinetic) was 5.9 µg/mL (≈ 18 µM). This solubility kinetic is about 1.8-fold lower than that of the compound before.
The same measure for `CN(Cc1ccccc1)S(=O)(=O)c1ccccc1[N+](=O)[O-]`: 15.3 µg/mL (≈ 49.9 µM); for `COc1ccc(NC(=O)CC2C(=O)NCCN2C(=O)c2ccccc2)cc1` (centres undefined): above 55.1 µg/mL.
In turn, `Cc1ccc(S(=O)(=O)c2cc3ccccc3nc2N)cc1` yielded a solubility (kinetic) of 0.5 µg/mL (≈ 1.68 µM).
As to `Cn1ccc(C(=O)OCC(=O)Nc2ccccc2Cl)n1`, the solubility (kinetic) was above 44.1 µg/mL.
As for `Cc1ccc(-c2nc(N3CCN(C)CC3)c3ccccc3n2)cc1.Cl`, the figure is 49 µg/mL; as for `CCCCOc1ccc(CC(=O)NO)cc1`, above 33.5 µg/mL.
Compound `O=C(Nc1ccc(Cl)cc1)Nc1ccc2c(c1)OCO2` returned a solubility (kinetic) of 0.4 µg/mL (≈ 1.38 µM).
As for `O=[N+]([O-])c1cc2c(cc1CN1CCN(c3ccccc3F)CC1)OCO2`, the figure is 1.1 µg/mL (≈ 3.06 µM); as for `CCc1ccc(/C([O-])=C(/C(=S)NCCN2CCOCC2)[n+]2ccccc2)cc1`, 55.4 µg/mL (≈ 139 µM); as for `CCOC(=O)C1=C(COC(=O)c2cccnc2SC)NC(=O)NC1C` (centres undefined), above 54.8 µg/mL.
In the case of `O=C(Nc1ccc2c(c1)OCCO2)c1cccc(Cl)c1`, the solubility (kinetic) was determined as 36.9 µg/mL (≈ 127 µM).
The same measure for `O=C(COC(=O)CCSc1ccccc1)Nc1ccccc1`: 41.6 µg/mL (≈ 132 µM).
In turn, `COC(=O)c1sccc1NC(=O)CC1NCCNC1=O` (centres undefined) yielded a solubility (kinetic) of 42.1 µg/mL (≈ 142 µM).
The same measure for `Cn1c(O)c(/C=N/N2CCOCC2)c(=O)n(-c2ccccc2)c1=S`: above 52 µg/mL.
The same measure for `COc1ccc(NC(=O)c2ccc(NC(=O)CN3CCC(C(N)=O)CC3)cc2)cc1`: 8.1 µg/mL (≈ 19.7 µM); for `CC(Sc1nncn1C)C(=O)Nc1ccc(S(N)(=O)=O)cc1` (centres undefined): above 51.2 µg/mL; for `Cc1cccc(S(=O)(=O)c2c(C)cc(C)[nH]c2=O)c1`: above 41.6 µg/mL.
As for `Nc1nonc1OCCN1CCN(c2ccc([N+](=O)[O-])c3cccnc23)CC1`, the figure is 9.1 µg/mL (≈ 23.6 µM); as for `Cc1cccc(Nc2nc(C)cc(C)n2)c1.Cl`, 20.1 µg/mL; as for `Cc1oc(S(=O)(=O)N2CCCC2)cc1C(=O)Nc1ccccc1`, 4.3 µg/mL (≈ 12.9 µM).
Turning to `Brc1ccc2c(c1)[C@H]1OCC[C@H]1[C@@H](c1cccs1)N2`, the kinetic solubility is 1.4 µg/mL (≈ 4.16 µM).
The same measure for `COc1cc2[nH]c(Cl)c([N+](=O)[O-])c2cc1OC`: above 38.5 µg/mL; for `COC(=O)c1cc(S(=O)(=O)N(C)Cc2ccco2)c[nH]1`: above 44.7 µg/mL; for `O=C(c1cccc([N+](=O)[O-])c1)N1CCc2ccccc21`: 2.1 µg/mL (≈ 7.83 µM).
In turn, `Cc1ccc(SCCC(=O)N/N=C/c2cccnc2)cc1` came in with a solubility (kinetic) above 44.9 µg/mL.
On to `CNC(=O)/C(C#N)=C/c1cn(CC(=O)OC)c2ccccc12`, for which the solubility (kinetic) came out at 7.8 µg/mL (≈ 26.2 µM).
As for `O=C(NC(=S)NCC1CCCO1)c1ccco1` (centres undefined), the figure is 37.6 µg/mL (≈ 148 µM); as for `Clc1ccc(CNc2ncccn2)cc1`, 24.4 µg/mL (≈ 111 µM).
`O=C(c1ccc(Br)cc1)C12CN3CN(CN(C3)C1)C2`: the kinetic solubility is above 48.3 µg/mL.
Turning to `O=C(O)c1ccccc1Nc1ccc([N+](=O)[O-])c2nonc12`, the kinetic solubility is 29.5 µg/mL (≈ 98.3 µM).
As for `COc1c(O)cccc1/C=N/NC(=O)Cn1ccnc1C`, the figure is above 43.2 µg/mL; as for `Cc1ccc(CNCc2ccco2)cc1.O=C(O)C(=O)O`, above 43.7 µg/mL; as for `CCOCCCNC(=O)c1oc2ccc3c(c2c1C)C(O)CC(C)(C)O3` (centres undefined), above 54.2 µg/mL.
As for `CC(NC(=O)/C(=C\c1ccco1)NC(=O)c1ccco1)C(=O)O` (centres undefined), the figure is 46.5 µg/mL (≈ 146 µM); as for `CCOc1ccc(CNC(c2ccccc2)c2ccccc2)cc1.Cl`, below 0.8 µg/mL; as for `Cc1ccc(NC(=O)CN2C(=O)c3ccccc3S2(=O)=O)c(C)c1`, 2.7 µg/mL (≈ 7.84 µM).
As for `COCCCN(CC(=O)Nc1ccc(F)cc1)S(=O)(=O)c1cccs1`, the solubility (kinetic) is above 58 µg/mL.
The same measure for `CCOC(=O)Nc1ccc(N2CCOCC2)c(S(=O)(=O)Nc2ccc(Cl)cc2)c1`: 7.8 µg/mL (≈ 17.7 µM).
As for `Cc1cccnc1NC(=S)Nc1ccc(F)cc1F`, the figure is 8 µg/mL (≈ 28.6 µM); as for `CCCN1C(=O)C(O)(c2c(C)[nH]c3ccccc23)c2ccccc21` (centres undefined), 26.3 µg/mL (≈ 82.1 µM); as for `Cc1cc(/C=C2/NC(=O)NC2=O)c(C)n1-c1ccc(C#N)cc1`, 8.4 µg/mL (≈ 27.4 µM).
For the compound `CC(C)(c1ccccc1)c1ccc(OCCN2CCCC2)cc1`, the kinetic solubility came out at 29.2 µg/mL (≈ 94.4 µM).
For `Oc1ccc(/C=N/N2CCCCC2)c(O)c1O`, the kinetic solubility is above 35.4 µg/mL.
The same measure for `O=C(NCC1CCCO1)c1cc2ccccc2o1` (centres undefined): above 36.8 µg/mL.
The same measure for `CN(C)C(=O)COc1ccc2c(-c3ccccc3)cc(=O)oc2c1`: 12.6 µg/mL (≈ 39 µM); for `CCOC(=O)N1CCN(CCC(=O)Nc2cc(C)ccc2C)CC1`: above 50 µg/mL.
